Assay results: ChEMBL document CHEMBL5346941, “Design, synthesis and evaluation of novel monoamine oxidase B (MAO-B) inhibitors with improved pharmacokinetic properties for Parkinson's disease” (Eur J Med Chem, 2023)
Activity calls are given as the source filed them. The calls are words filed in the database; no cut-off is given here.

Experiments:
[1] = Metabolic stability in dog liver microsomes assessed as intrinsic clearance at 1 uM incubated for 60 mins in presence of NADPH by LC-MS/MS analysis; type: ADME, Canis lupus familiaris, Microsome; conditions: read-out: CLH
[2] = Cmax in fasted Sprague-Dawley rat at 5 mg/kg, IG measured for 24 hrs; type: ADME, organism-based; parameters: dose 5 mg/kg, time 24 hrs, route ig; conditions: in vivo, po
[3] = AUC (0 to t) in fasted Sprague-Dawley rat at 1 mg/kg, iv measured for 24 hrs; type: ADME, organism-based; parameters: dose 1 mg/kg, time 24 hrs, route iv; conditions: in vivo
[4] = Ratio of drug concentration in Sprague-Dawley brain to plasma at 5 mg/kg, ip measured after 15 mins by LC-MS/MS analysis; type: ADME, organism-based; conditions: rat, read-out: BPR
[5] = Drug concentration in Sprague-Dawley rat brain at 5 mg/kg, ip measured after 60 mins by LC-MS/MS analysis; type: ADME, organism-based; conditions: read-out: Ct
Mus musculus = assay: In vivo inhibition of MAO-B in ICR mouse assessed as reduction in enzyme activity in brain at 2 mg/kg, ip administered once for 30 to 60 mins by amplex red based assay; type: functional, organism-based; conditions: time 30-60 min
[6] = Elimination half life in fasted Sprague-Dawley rat at 5 mg/kg, IG measured for 24 hrs; type: ADME, organism-based; conditions: in vivo, po, read-out: beta t1/2 (converted)
[7] = Metabolic stability in monkey liver microsomes assessed as half life at 1 uM incubated for 60 mins in presence of NADPH by LC-MS/MS analysis; type: ADME, Macaca mulatta, Microsome; conditions: rhesus monkey
[8] = Elimination half life in fasted ICR mouse at 5 mg/kg, IG measured for 24 hrs; type: ADME, organism-based; conditions: in vivo, po, read-out: beta t1/2 (converted)
[9] = Protein binding in monkey plasma at 0.1 to 10 uM incubated for 5 hrs by LC-MS/MS based rapid equilibrium dialysis method; type: ADME, cell-free, Macaca mulatta; conditions: rhesus monkey, dose 0.1-10 µM, read-out: PPB (converted)
[10] = Metabolic stability in mouse liver microsomes assessed as half life at 1 uM incubated for 60 mins in presence of NADPH by LC-MS/MS analysis; type: ADME, Microsome
[11] = Volume of distribution at steady state in fasted Sprague-Dawley rat at 1 mg/kg, iv measured for 24 hrs; type: ADME, organism-based; conditions: in vivo, read-out: Vdss
[12] = Ratio of drug concentration in Sprague-Dawley brain to plasma at 5 mg/kg, ip measured after 60 mins by LC-MS/MS analysis; type: ADME, organism-based; conditions: rat, read-out: BPR
[13] = target: Voltage-gated inwardly rectifying potassium channel KCNH2 (Homo sapiens, UniProt Q12809); assay: Inhibition of hERG transfected in CHO-K1 cells at -80 mV holding potential incubated for 2 mins by patch clamp assay; type: toxicity, cell-based
[14] = Bioavailability in fasted Sprague-Dawley rat at 5 mg/kg, IG measured for 24 hrs; type: ADME, organism-based; conditions: in vivo, po
[15] = Ratio of drug concentration in Sprague-Dawley brain to plasma at 5 mg/kg, ip measured after 120 mins by LC-MS/MS analysis; type: ADME, organism-based; conditions: rat, read-out: BPR
CYP3A4 = CYP3A4 (Homo sapiens, UniProt P08684); assay: Inhibition of CYP3A4 in human liver microsomes using midazolam as substrate at 10 uM incubated for 5 mins in presence of NADPH by LC-MS/MS analysis relative to control; type: ADME, Microsome; conditions: probe midazolam
[16] = Protein binding in human plasma at 1 uM incubated for 5 hrs by LC-MS/MS based rapid equilibrium dialysis method; type: ADME, cell-free; conditions: read-out: PPB (converted)
[17] = Cmax in fasted Sprague-Dawley rat at 1 mg/kg, iv measured for 24 hrs; type: ADME, organism-based; parameters: dose 1 mg/kg, time 24 hrs, route iv; conditions: Sprague-Dawley, in vivo, read-out: Cmax
[18] = AUC (0 to t) in fasted ICR mouse at 2 mg/kg, iv measured for 24 hrs; type: ADME, organism-based; parameters: dose 2 mg/kg, time 24 hrs, route iv; conditions: in vivo
[19] = Protein binding in dog plasma at 1 uM incubated for 5 hrs by LC-MS/MS based rapid equilibrium dialysis method; type: ADME, cell-free, Canis lupus familiaris; conditions: read-out: PPB (converted)
[20] = Cmax in fasted ICR mouse at 2 mg/kg, iv measured for 24 hrs; type: ADME, organism-based; parameters: time 24 hrs, dose 2 mg/kg, route iv; conditions: in vivo

Voltage-gated inwardly rectifying potassium channel KCNH2, sequence (Q12809 whole entry): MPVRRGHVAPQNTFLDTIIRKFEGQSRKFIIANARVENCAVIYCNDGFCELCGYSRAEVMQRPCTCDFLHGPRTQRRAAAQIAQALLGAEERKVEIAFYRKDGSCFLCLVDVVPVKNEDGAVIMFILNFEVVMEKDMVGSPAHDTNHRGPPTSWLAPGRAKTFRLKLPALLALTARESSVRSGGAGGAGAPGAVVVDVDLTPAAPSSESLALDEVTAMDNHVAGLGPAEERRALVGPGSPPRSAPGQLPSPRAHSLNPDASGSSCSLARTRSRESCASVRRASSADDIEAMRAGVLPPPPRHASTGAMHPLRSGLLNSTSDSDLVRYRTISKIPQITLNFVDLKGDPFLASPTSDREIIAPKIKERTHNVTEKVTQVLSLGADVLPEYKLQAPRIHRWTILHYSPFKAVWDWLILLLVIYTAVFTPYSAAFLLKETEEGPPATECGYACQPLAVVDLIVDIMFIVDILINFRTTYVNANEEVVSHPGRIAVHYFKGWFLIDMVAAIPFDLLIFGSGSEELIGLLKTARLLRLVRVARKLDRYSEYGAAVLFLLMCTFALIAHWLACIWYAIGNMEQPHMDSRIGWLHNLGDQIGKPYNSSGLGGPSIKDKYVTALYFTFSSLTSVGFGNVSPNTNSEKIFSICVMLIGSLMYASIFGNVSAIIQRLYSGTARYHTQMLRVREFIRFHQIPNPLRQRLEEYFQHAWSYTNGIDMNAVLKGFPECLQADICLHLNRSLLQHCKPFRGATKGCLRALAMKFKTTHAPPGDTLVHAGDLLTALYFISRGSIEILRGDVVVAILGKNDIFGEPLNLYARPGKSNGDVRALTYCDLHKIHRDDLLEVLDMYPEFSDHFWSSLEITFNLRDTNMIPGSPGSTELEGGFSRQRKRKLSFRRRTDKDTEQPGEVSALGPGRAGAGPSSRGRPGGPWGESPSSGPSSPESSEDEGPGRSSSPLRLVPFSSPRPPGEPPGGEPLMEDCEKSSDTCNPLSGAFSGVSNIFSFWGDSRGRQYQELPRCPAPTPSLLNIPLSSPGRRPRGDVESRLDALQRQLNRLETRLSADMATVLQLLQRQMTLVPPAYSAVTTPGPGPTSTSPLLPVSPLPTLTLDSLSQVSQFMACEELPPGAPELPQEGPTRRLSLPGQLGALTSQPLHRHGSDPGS
CYP3A4, sequence (P08684 whole entry): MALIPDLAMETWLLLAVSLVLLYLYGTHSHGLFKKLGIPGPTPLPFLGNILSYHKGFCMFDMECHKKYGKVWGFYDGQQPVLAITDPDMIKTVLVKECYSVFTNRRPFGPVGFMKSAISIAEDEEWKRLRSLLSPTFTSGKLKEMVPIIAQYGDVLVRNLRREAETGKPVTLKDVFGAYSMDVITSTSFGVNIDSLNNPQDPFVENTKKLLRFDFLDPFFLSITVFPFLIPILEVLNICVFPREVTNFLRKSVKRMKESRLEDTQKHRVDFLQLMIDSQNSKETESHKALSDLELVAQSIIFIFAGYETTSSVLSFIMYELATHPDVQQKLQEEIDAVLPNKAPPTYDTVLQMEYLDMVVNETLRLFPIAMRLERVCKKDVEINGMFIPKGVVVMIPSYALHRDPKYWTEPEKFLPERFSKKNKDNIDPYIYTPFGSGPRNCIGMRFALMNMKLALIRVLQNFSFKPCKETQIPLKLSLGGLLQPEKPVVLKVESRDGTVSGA

- CLint scaled at 1 µM [1]: 7.5 mL/min/kg
- Cmax [2]: 436 ng/mL
- AUC(0-t) at 24 h [3]: 305 ng·h/mL
- Kp at 0.25 h [4]: 10.4
- concentration at 1 h [5]: 8750 ng/g
- half-life [6]: 4.22 h
- half-life at 1 µM [7]: 5.63 h
- half-life [8]: 3.8 h
- fraction unbound at 5 h, up to 10 µM [9]: 0.0029
- half-life at 1 µM [10]: 2.82 h
- Vd [11]: 3.33 L/kg
- Kp at 1 h [12]: 16.2
- bioavailability [14]: 150%
- Kp at 2 h [15]: 15.5
- inhibition at 5 min, 10 µM (CYP3A4): -45.2%
- fraction unbound at 5 h, 1 µM [16]: 0.0058
- Cmax [17]: 273 ng/mL
- AUC(0-t) at 24 h [18]: 2680 ng·h/mL
- fraction unbound at 5 h, 1 µM [19]: 0.0036
- Cmax [20]: 900 ng/mL
SMILES: NC(=O)[C@@H]1C[C@H](F)CN1Cc1ccc2oc(-c3ccc(F)cc3)cc2c1
- inhibition (Mus musculus): Active
- IC50 [13]: > 30 µM
